{"source": "patent US9096518B2", "about": "“Substituted hydroxamic acids and uses thereof” (Millennium Pharmaceuticals, Inc., priority 2009, dated 2015)"}
{"target": "T1, purified human HDAC6 (Homo sapiens, UniProt Q9UBN7)", "T1 construct": "purchased BPS Bioscience 5006", "T1 sequence (Q9UBN7 1-1215)": "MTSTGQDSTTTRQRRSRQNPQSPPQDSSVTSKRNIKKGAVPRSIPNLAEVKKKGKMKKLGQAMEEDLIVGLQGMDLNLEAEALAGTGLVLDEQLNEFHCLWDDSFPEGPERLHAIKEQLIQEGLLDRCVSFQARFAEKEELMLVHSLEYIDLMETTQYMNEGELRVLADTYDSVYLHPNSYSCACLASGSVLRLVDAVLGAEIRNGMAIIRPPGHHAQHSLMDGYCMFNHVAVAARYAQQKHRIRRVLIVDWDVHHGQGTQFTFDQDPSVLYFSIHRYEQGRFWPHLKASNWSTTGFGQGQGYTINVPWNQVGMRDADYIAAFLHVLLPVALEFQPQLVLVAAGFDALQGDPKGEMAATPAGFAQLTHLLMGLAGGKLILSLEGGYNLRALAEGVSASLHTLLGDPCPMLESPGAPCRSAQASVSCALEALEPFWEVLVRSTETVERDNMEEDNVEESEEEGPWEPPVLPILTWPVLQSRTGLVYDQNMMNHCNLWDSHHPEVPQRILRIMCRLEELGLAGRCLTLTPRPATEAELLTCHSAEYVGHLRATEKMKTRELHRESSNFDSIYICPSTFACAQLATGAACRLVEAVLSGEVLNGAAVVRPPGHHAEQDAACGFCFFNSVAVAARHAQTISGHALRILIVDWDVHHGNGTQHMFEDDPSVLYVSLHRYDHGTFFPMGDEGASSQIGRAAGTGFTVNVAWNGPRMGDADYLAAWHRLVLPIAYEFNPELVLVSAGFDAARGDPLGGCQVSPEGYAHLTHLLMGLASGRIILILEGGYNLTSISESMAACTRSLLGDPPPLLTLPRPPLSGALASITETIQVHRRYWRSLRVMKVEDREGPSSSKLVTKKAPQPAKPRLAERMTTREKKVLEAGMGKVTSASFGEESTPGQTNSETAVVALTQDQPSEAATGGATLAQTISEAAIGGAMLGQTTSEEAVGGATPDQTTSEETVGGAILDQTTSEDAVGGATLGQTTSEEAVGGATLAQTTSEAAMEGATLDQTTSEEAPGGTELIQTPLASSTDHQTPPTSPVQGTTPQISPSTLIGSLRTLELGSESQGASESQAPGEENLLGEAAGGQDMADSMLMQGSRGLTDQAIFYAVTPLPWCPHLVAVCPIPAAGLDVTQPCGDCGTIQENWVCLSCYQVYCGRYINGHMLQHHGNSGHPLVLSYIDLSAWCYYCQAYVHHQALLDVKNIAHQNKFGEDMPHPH", "assay": "HDAC6 Enzyme Assay", "assay_type": "biochemical", "protocol": "To measure the inhibition of HDAC6 activity, purified human HDAC6 (BPS Bioscience; Cat. No. 5006) is incubated with substrate Ac-Arg-Gly-Lys(Ac)-AMC peptide (Bachem Biosciences; Cat. No. I-1925) for 1 hour at 30° C. in the presence of test compounds or vehicle DMSO control. The reaction is stopped with the HDAC inhibitor trichostatin A (Sigma; Cat. No. T8552) and the amount of Arg-Gly-Lys-AMC generated is quantitated by digestion with trypsin (Sigma; Cat. No. T1426) and subsequent measurement of the amount of AMC released using a fluorescent plate reader (Pherastar; BMG Technologies) set at Ex 340 nm and Em 460 nm. Concentration response curves are generated by calculating the fluorescence increase in test compound-treated samples relative to DMSO-treated controls, and enzyme inhibition (IC50) values are determined from those curves.", "units": {"IC50": "µM"}}
{"smiles": "Cn1cccc1C(=O)N1CCc2cc(C(=O)NO)ccc2C1", "note": "[Compound 1, N-hydroxy-2-[(1-methyl-1H-pyrrol-2-yl)carbonyl]-1,2,3,4-tetrahydroisoquinoline-6-carboxamide]", "IC50": "< 0.05"}
{"smiles": "CC(C)(C)C(=O)N1CCc2cc(C(=O)NO)ccc2C1", "note": "[Compound 2, 2-(2,2-dimethylpropanoyl)-N-hydroxy-1,2,3,4-tetrahydroisoquinoline-6-carboxamide]", "IC50": "0.05 to 0.1"}
{"smiles": "O=C(NO)c1ccc2c(c1)CCN(C(=O)Cc1ccc(C(F)(F)F)cc1)C2", "note": "[Compound 3, N-hydroxy-2-{[4-(trifluoromethyl)phenyl]acetyl}-1,2,3,4-tetrahydroisoquinoline-6-carboxamide]", "IC50": "0.05 to 0.1"}
{"smiles": "O=C(NO)c1ccc2c(c1)CCN(C(=O)C1(c3ccc(Cl)cc3)CCC1)C2", "note": "[Compound 4, 2-{[1-(4-chlorophenyl)cyclobutyl]carbonyl}-N-hydroxy-1,2,3,4-tetrahydroisoquinoline-6-carboxamide]", "IC50": "< 0.05"}
{"smiles": "O=C(NO)c1ccc2c(c1)CCN(C(=O)C1CCCCC1)C2", "note": "[Compound 5, 2-(cyclohexylcarbonyl)-N-hydroxy-1,2,3,4-tetrahydroisoquinoline-6-carboxamide]", "IC50": "0.05 to 0.1"}
{"smiles": "Cc1nc(CC(=O)N2CCc3cc(C(=O)NO)ccc3C2)cs1", "note": "[Compound 6, N-hydroxy-2-[(2-methyl-1,3-thiazol-4-yl)acetyl]-1,2,3,4-tetrahydroisoquinoline-6-carboxamide]", "IC50": "0.1 to 0.5"}
{"smiles": "O=C(NO)c1ccc2c(c1)CCN(C(=O)c1cnn(-c3ccccc3)c1)C2", "note": "[Compound 7, N-hydroxy-2-[(1-phenyl-1H-pyrazol-4-yl)carbonyl]-1,2,3,4-tetrahydroisoquinoline-6-carboxamide]", "IC50": "< 0.05"}
{"smiles": "O=C(NO)c1ccc2c(c1)CCN(C(=O)c1cc3ccccc3[nH]1)C2", "note": "[Compound 8, N-hydroxy-2-(1H-indol-2-ylcarbonyl)-1,2,3,4-tetrahydroisoquinoline-6-carboxamide]", "IC50": "< 0.05"}
{"smiles": "CC(C)CC(=O)N1CCc2cc(C(=O)NO)ccc2C1", "note": "[Compound 9, N-hydroxy-2-(3-methylbutanoyl)-1,2,3,4-tetrahydroisoquinoline-6-carboxamide]", "IC50": "0.05 to 0.1"}
{"smiles": "Cc1ccc(C(C)C(=O)N2CCc3cc(C(=O)NO)ccc3C2)cc1", "note": "(centres unmarked) [Compound 10, N-hydroxy-2-[2-(4-methylphenyl)propanoyl]-1,2,3,4-tetrahydroisoquinoline-6-carboxamide]", "IC50": "0.05 to 0.1"}
{"smiles": "O=C(NO)c1ccc2c(c1)CCN(C(=O)c1cccc3ccccc13)C2", "note": "[Compound 12, N-hydroxy-2-(1-naphthoyl)-1,2,3,4-tetrahydroisoquinoline-6-carboxamide]", "IC50": "0.05 to 0.1"}
{"smiles": "O=C(NO)c1ccc2c(c1)CCN(C(=O)CCn1ccc3ccccc31)C2", "note": "[Compound 13, N-hydroxy-2-[3-(1H-indol-1-yl)propanoyl]-1,2,3,4-tetrahydroisoquinoline-6-carboxamide]", "IC50": "> 0.5"}
{"smiles": "O=C(NO)c1ccc2c(c1)CCN(C(=O)c1ccc(-n3cccc3)cc1)C2", "note": "[Compound 14, N-hydroxy-2-[4-(1H-pyrrol-1-yl)benzoyl]-1,2,3,4-tetrahydroisoquinoline-6-carboxamide]", "IC50": "0.05 to 0.1"}
{"smiles": "O=C(NO)c1ccc2c(c1)CCN(C(=O)Cc1ccccc1)C2", "note": "[Compound 15, N-hydroxy-2-(phenylacetyl)-1,2,3,4-tetrahydroisoquinoline-6-carboxamide]", "IC50": "0.05 to 0.1"}
{"smiles": "Cc1noc(C)c1CC(=O)N1CCc2cc(C(=O)NO)ccc2C1", "note": "[Compound 16, 2-[(3,5-dimethylisoxazol-4-yl)acetyl]-N-hydroxy-1,2,3,4-tetrahydroisoquinoline-6-carboxamide]", "IC50": "0.05 to 0.1"}
{"smiles": "CC(=O)N[C@H](CC(C)C)C(=O)N1CCc2cc(C(=O)NO)ccc2C1", "note": "[Compound 17, 2-[(2R)-2-(acetylamino)-4-methylpentanoyl]-N-hydroxy-1,2,3,4-tetrahydroisoquinoline-6-carboxamide]", "IC50": "0.1 to 0.5"}
{"smiles": "Cc1c(C(=O)N2CCc3cc(C(=O)NO)ccc3C2)cnn1-c1ccccc1", "note": "[Compound 18, N-hydroxy-2-[(5-methyl-1-phenyl-1H-pyrazol-4-yl)carbonyl]-1,2,3,4-tetrahydroisoquinoline-6-carboxamide]", "IC50": "0.05 to 0.1"}
{"smiles": "C=CC(C)C(=O)N1CCc2cc(C(=O)NO)ccc2C1", "note": "(centres unmarked) [Compound 19, N-hydroxy-2-(2-methylbut-3-enoyl)-1,2,3,4-tetrahydroisoquinoline-6-carboxamide]", "IC50": "0.05 to 0.1"}
{"smiles": "CC(N)(Cc1ccccc1)C(=O)N1CCc2cc(C(=O)NO)ccc2C1", "note": "(centres unmarked) [Compound 20, 2-(2-amino-2-methyl-3-phenylpropanoyl)-N-hydroxy-1,2,3,4-tetrahydroisoquinoline-6-carboxamide]", "IC50": "0.1 to 0.5"}
{"smiles": "O=C(NO)c1ccc2c(c1)CCN(C(=O)COc1ccccc1)C2", "note": "[Compound 21, N-hydroxy-2-(phenoxyacetyl)-1,2,3,4-tetrahydroisoquinoline-6-carboxamide]", "IC50": "0.05 to 0.1"}
{"smiles": "O=C(NO)c1ccc2c(c1)CCN(C(=O)C1CCCCCC1)C2", "note": "[Compound 22, 2-(cycloheptylcarbonyl)-N-hydroxy-1,2,3,4-tetrahydroisoquinoline-6-carboxamide]", "IC50": "0.05 to 0.1"}
{"smiles": "CC1(C(=O)N2CCc3cc(C(=O)NO)ccc3C2)CC1", "note": "[Compound 23, N-hydroxy-2-(1-methylcyclopropanecarbonyl)-1,2,3,4-tetrahydroisoquinoline-6-carboxamide]", "IC50": "0.05 to 0.1"}
{"smiles": "O=C(NO)c1ccc2c(c1)CCN(C(=O)C1CCOC1)C2", "note": "(centres unmarked) [Compound 24, N-hydroxy-2-(tetrahydrofuran-3-ylcarbonyl)-1,2,3,4-tetrahydroisoquinoline-6-carboxamide]", "IC50": "0.1 to 0.5"}
{"smiles": "O=C(NO)c1ccc2c(c1)CCN(C(=O)CC1CCCC1)C2", "note": "[Compound 25, 2-(cyclopentylacetyl)-N-hydroxy-1,2,3,4-tetrahydroisoquinoline-6-carboxamide]", "IC50": "< 0.05"}
{"smiles": "O=C(NO)c1ccc2c(c1)CCN(C(=O)C1CC=CCC1)C2", "note": "(centres unmarked) [Compound 26, 2-(cyclohex-3-en-1-ylcarbonyl)-N-hydroxy-1,2,3,4-tetrahydroisoquinoline-6-carboxamide]", "IC50": "0.1 to 0.5"}
{"smiles": "CC(C)C(C(=O)N1CCc2cc(C(=O)NO)ccc2C1)c1ccccc1", "note": "(centres unmarked) [Compound 27, N-hydroxy-2-(3-methyl-2-phenylbutanoyl)-1,2,3,4-tetrahydroisoquinoline-6-carboxamide]", "IC50": "< 0.05"}
{"smiles": "CC1(C(=O)N2CCc3cc(C(=O)NO)ccc3C2)CCCCC1", "note": "[Compound 28, N-hydroxy-2-[(1-methylcyclohexyl)carbonyl]-1,2,3,4-tetrahydroisoquinoline-6-carboxamide]", "IC50": "0.1 to 0.5"}
{"smiles": "C[C@H](C(=O)N1CCc2cc(C(=O)NO)ccc2C1)c1ccccc1", "note": "[Compound 29, N-hydroxy-2-[(2S)-2-phenylpropanoyl]-1,2,3,4-tetrahydroisoquinoline-6-carboxamide]", "IC50": "0.05 to 0.1"}
{"smiles": "O=C(NO)c1ccc2c(c1)CCN(C(=O)Cc1ccc(-c3ccccc3)cc1)C2", "note": "[Compound 30, 2-(biphenyl-4-ylacetyl)-N-hydroxy-1,2,3,4-tetrahydroisoquinoline-6-carboxamide]", "IC50": "< 0.05"}
{"smiles": "Cc1cc(C)n(CC(=O)N2CCc3cc(C(=O)NO)ccc3C2)n1", "note": "[Compound 31, 2-[(3,5-dimethyl-1H-pyrazol-1-yl)acetyl]-N-hydroxy-1,2,3,4-tetrahydroisoquinoline-6-carboxamide]", "IC50": "0.1 to 0.5"}
{"smiles": "O=C(NO)c1ccc2c(c1)CCN(C(=O)C1CCCC1)C2", "note": "[Compound 32, 2-(cyclopentylcarbonyl)-N-hydroxy-1,2,3,4-tetrahydroisoquinoline-6-carboxamide]", "IC50": "< 0.05"}
{"smiles": "O=C(NO)c1ccc2c(c1)CCN(C(=O)C13CC4CC(CC(C4)C1)C3)C2", "note": "[Compound 33, 2-[1-adamantylcarbonyl]-N-hydroxy-1,2,3,4-tetrahydroisoquinoline-6-carboxamide]", "IC50": "< 0.05"}
